The source of these data is patent US10745382B2 (BRISTOL-MYERS SQUIBB COMPANY, priority 2015, dated 2020).

T1 sequence (Q9NZQ7 with tags, fused parts or gaps): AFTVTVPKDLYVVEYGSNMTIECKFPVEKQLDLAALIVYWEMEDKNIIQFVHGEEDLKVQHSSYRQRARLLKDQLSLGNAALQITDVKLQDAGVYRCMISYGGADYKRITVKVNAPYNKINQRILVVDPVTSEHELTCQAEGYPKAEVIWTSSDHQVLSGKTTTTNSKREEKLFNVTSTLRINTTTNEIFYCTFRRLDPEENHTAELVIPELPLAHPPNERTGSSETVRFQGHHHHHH

One experiment has as its target T1, PD-1/PD-L1 (Homo sapiens, UniProt Q9NZQ7).
T1 construct: made in house; host or cells: HEK293T
Put plainly: PD-1/PD-L1 Homogenous Time-Resolved Fluorescence (HTRF) binding assay. As to conditions: PD-L1-His 10 nM, PD-1-Ig 20 nM; numeric IC50; read-out: Range or IC50. In a few lines: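 Additional pairs run were PD-1-Ig with PD-L2-His (20 & 5 nM) and CD80-His with PD-L1-Ig (100 & 10 nM), all human proteins. Buffer: dPBS plus 0.1% BSA, 0.05% Tween-20; time-resolved FRET read-out via 1 nM Eu-cryptate anti-Ig and 20 nM APC anti-His, final concentrations.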
(Time-resolved FRET reads energy transfer from a long-lived donor to a nearby acceptor.)
As to `Cc1c(COc2cc(OCc3cncc(C#N)c3)c(CN3CCCC[C@H]3C(=O)O)cc2Cl)cccc1-c1cccc(OCCCN2CCC(CO)(C(=O)O)C2)c1Cl` (stereo partly drawn) [Example 1106, (2S)-1-(4-((3′-(3-(3-carboxy-3-(hydroxymethyl)pyrrolidin-1-yl)propoxy)-2′-chloro-2-methyl-[1,1′-biphenyl]-3-yl)methoxy)-5-chloro-2-((5-cyanopyridin-3-yl)methoxy)benzyl)piperidine-2-carboxylic Acid], the half-maximal inhibitory concentration (IC50) (commonly the midpoint of a concentration-inhibition curve) came to 1 nM.
`Cc1c(COc2cc(OCc3cncc(C#N)c3)c(C=O)cc2Cl)cccc1-c1cccc(OCCCN2CC[C@@H](O)C2)c1Cl` [Example 1509, (R)-5-((4-chloro-5-((2′-chloro-3′-(3-(3-hydroxypyrrolidin-1-yl)propoxy)-2-methyl-[1,1′-biphenyl]-3-yl)methoxy)-2-formylphenoxy)methyl)nicotinonitrile]: the half-maximal inhibitory concentration (IC50) was 12 nM.

The same experiment, now with this note: PD-L1-His 10 nM, PD-1-Ig 20 nM; value given as range class; read-out: Range or IC50.
Turning to `CCOC(=O)C1(CO)CCN(CCCOc2cccc(-c3cccc(COc4cc(OCc5cncc(C#N)c5)c(CN[C@](C)(CO)C(=O)O)cc4Cl)c3C)c2Cl)C1` (stereo partly drawn) [Example 1103, (2R)-2-((5-chloro-4-((2′-chloro-3′-(3-(3-(ethoxycarbonyl)-3-(hydroxymethyl)pyrrolidin-1-yl)propoxy)-2-methyl-[1,1′-biphenyl]-3-yl)methoxy)-2-((5-cyanopyridin-3-yl)methoxy)benzyl)amino)-3-hydroxy-2-methylpropanoic Acid], the IC50 lay in the range of 0.21 to 10 nM.
On the same count and under the same terms, the same measure for `CCOC(=O)C1(CO)CCN(CCCOc2cccc(-c3cccc(COc4cc(OCc5cncc(C#N)c5)c(CN5CCC(CO)(C(=O)OCC)C5)cc4Cl)c3C)c2Cl)C1` (stereo not shown) [Example 1104, ethyl 1-(3-((2-chloro-3′-((2-chloro-5-((5-cyanopyridin-3-yl)methoxy)-4-((3-(ethoxycarbonyl)-3-(hydroxymethyl)pyrrolidin-1-yl)methyl)phenoxy)methyl)-2′-methyl-[1,1′-biphenyl]-3-yl)oxy)propyl)-3-(hydroxymethyl)pyrrolidine-3-carboxylate]: 10 to 100 nM.
On the same count and under the same terms, under `CC(=O)NC1CCN(CCCOc2cccc(-c3cccc(COc4cc(OCc5cncc(C#N)c5)c(CN5CCCC[C@H]5C(=O)O)cc4Cl)c3C)c2C)CC1` [Example 1105, (S)-1-(4-((3′-(3-(4-acetamidopiperidin-1-yl)propoxy)-2,2′-dimethyl-[1,1′-biphenyl]-3-yl)methoxy)-5-chloro-2-((5-cyanopyridin-3-yl)methoxy)benzyl)piperidine-2-carboxylic Acid] stands 0.21 to 10 nM; under `Cc1c(COc2cc(OCc3cncc(C(N)=O)c3)c(CN3CCCC[C@H]3C(=O)O)cc2Cl)cccc1-c1cccc(OCCCN2CCC(CO)(C(=O)O)C2)c1Cl` (stereo partly drawn) [Example 1107, (2S)-1-(2-((5-carbamoylpyridin-3-yl)methoxy)-4-((3′-(3-(3-carboxy-3-(hydroxymethyl)pyrrolidin-1-yl)propoxy)-2′-chloro-2-methyl-[1,1′-biphenyl]-3-yl)methoxy)-5-chlorobenzyl)piperidine-2-carboxylic Acid], 0.21 to 10 nM.
Same read-out and setting: the same measure for `Cc1c(COc2cc(OCc3cncc(C#N)c3)c(CN[C@](C)(CO)C(=O)O)cc2Cl)cccc1-c1cccc(OCCCN2CCC(CO)(C(=O)O)C2)c1Cl` (stereo partly drawn) [Example 1108, 1-(3-((3′-((4-((((R)-2-carboxy-1-hydroxypropan-2-yl)amino)methyl)-2-chloro-5-((5-cyanopyridin-3-yl)methoxy)phenoxy)methyl)-2-chloro-2′-methyl-[1,1′-biphenyl]-3-yl)oxy)propyl)-3-(hydroxymethyl)pyrrolidine-3-carboxylic Acid]: 0.21 to 10 nM; for `Cc1c(COc2cc(OCc3cncc(C#N)c3)c(CN3CCCC[C@H]3C(=O)O)cc2Cl)cccc1-c1cccc(OCCCN2CCC(CO)(C(=O)O)CC2)c1C` [Example 1110, (S)-1-(4-((3′-(3-(4-carboxy-4-(hydroxymethyl)piperidin-1-yl)propoxy)-2,2′-dimethyl-[1,1′-biphenyl]-3-yl)methoxy)-5-chloro-2-((5-cyanopyridin-3-yl)methoxy)benzyl)piperidine-2-carboxylic Acid]: 10 to 100 nM.
With `Cc1c(COc2cc(OCc3cncc(C(N)=O)c3)c(CN3CCCC[C@H]3C(=O)O)cc2Cl)cccc1-c1cccc(OCCCN2CCC(CO)(C(=O)O)CC2)c1C` [Example 1111, (S)-1-(2-((5-carbamoylpyridin-3-yl)methoxy)-4-((3′-(3-(4-carboxy-4-(hydroxymethyl)piperidin-1-yl)propoxy)-2,2′-dimethyl-[1,1′-biphenyl]-3-yl)methoxy)-5-chlorobenzyl)piperidine-2-carboxylic Acid], the IC50 is 0.21 to 10 nM.
The same measure, in the same setting: the same measure for `Cc1c(COc2cc(OCc3cncc(C#N)c3)c(CN[C@](C)(CO)C(=O)O)cc2Cl)cccc1-c1cccc(OCCCN2CCC(CO)(C(=O)O)CC2)c1C` [Example 1112, (R)-1-(3-((3′-((4-(((2-carboxy-1-hydroxypropan-2-yl)amino)methyl)-2-chloro-5-((5-cyanopyridin-3-yl)methoxy)phenoxy)methyl)-2,2′-dimethyl-[1,1′-biphenyl]-3-yl)oxy)propyl)-4-(hydroxymethyl)piperidine-4-carboxylic Acid]: 0.21 to 10 nM; for `Cc1c(COc2cc(OCc3cncc(C(N)=O)c3)c(CN[C@](C)(CO)C(=O)O)cc2Cl)cccc1-c1cccc(OCCCN2CCC(CO)(C(=O)O)CC2)c1C` [Example 1113, (R)-1-(3-((3′-((5-((5-carbamoylpyridin-3-yl)methoxy)-4-(((2-carboxy-1-hydroxypropan-2-yl)amino)methyl)-2-chlorophenoxy)methyl)-2,2′-dimethyl-[1,1′-biphenyl]-3-yl)oxy)propyl)-4-(hydroxymethyl)piperidine-4-carboxylic Acid]: 0.21 to 10 nM; for `Cc1c(COc2cc(OCc3cncc(C(N)=O)c3)c(CN3CCCC[C@H]3C(=O)O)cc2Cl)cccc1-c1cccc(OCCCN2CCC(CO)(C(=O)O)CC2)c1Cl` [Example 1114, (S)-1-(2-((5-carbamoylpyridin-3-yl)methoxy)-4-((3′-(3-(4-carboxy-4-(hydroxymethyl)piperidin-1-yl)propoxy)-2′-chloro-2-methyl-[1,1′-biphenyl]-3-yl)methoxy)-5-chlorobenzyl)piperidine-2-carboxylic Acid]: 0.21 to 10 nM.
Regarding `Cc1c(COc2cc(OCc3cncc(C#N)c3)c(CN[C@](C)(CO)C(=O)O)cc2Cl)cccc1-c1cccc(OCCCN2CCC(CO)(C(=O)O)CC2)c1Cl` [Example 1115, (R)-1-(3-((3′-((4-(((2-carboxy-1-hydroxypropan-2-yl)amino)methyl)-2-chloro-5-((5-cyanopyridin-3-yl)methoxy)phenoxy)methyl)-2-chloro-2′-methyl-[1,1′-biphenyl]-3-yl)oxy)propyl)-4-(hydroxymethyl)piperidine-4-carboxylic Acid], the IC50 is 0.21 to 10 nM.
In the case of `Cc1c(COc2cc(OCc3cncc(C(N)=O)c3)c(CN[C@](C)(CO)C(=O)O)cc2Cl)cccc1-c1cccc(OCCCN2CCC(CO)(C(=O)O)CC2)c1Cl` [Example 1116, (R)-1-(3-((3′-((5-((5-carbamoylpyridin-3-yl)methoxy)-4-(((2-carboxy-1-hydroxypropan-2-yl)amino)methyl)-2-chlorophenoxy)methyl)-2-chloro-2′-methyl-[1,1′-biphenyl]-3-yl)oxy)propyl)-4-(hydroxymethyl)piperidine-4-carboxylic Acid], the IC50 was in the range of 0.21 to 10 nM.
Still for that read-out and setting: under `CCOC(=O)C1(CO)CCN(CCCOc2cccc(-c3cccc(COc4cc(OCc5cncc(C#N)c5)c(CNC(C)(CO)CO)cc4Cl)c3C)c2Cl)C1` (stereo not shown) [Example 1117, ethyl 1-(3-((2-chloro-3′-((2-chloro-5-((5-cyanopyridin-3-yl)methoxy)-4-(((1,3-dihydroxy-2-methylpropan-2-yl)amino)methyl)phenoxy)methyl)-2′-methyl-[1,1′-biphenyl]-3-yl)oxy)propyl)-3-(hydroxymethyl)pyrrolidine-3-carboxylate] stands 0.21 to 10 nM; under `Cc1c(COc2cc(OCc3cncc(C#N)c3)c(CNC(C)(CO)CO)cc2Cl)cccc1-c1cccc(OCCCN2CCC(CO)(C(=O)O)C2)c1Cl` (stereo not shown) [Example 1118, 1-(3-((2-chloro-3′-((2-chloro-5-((5-cyanopyridin-3-yl)methoxy)-4-(((1,3-dihydroxy-2-methylpropan-2-yl)amino)methyl)phenoxy)methyl)-2′-methyl-[1,1′-biphenyl]-3-yl)oxy)propyl)-3-(hydroxymethyl)pyrrolidine-3-carboxylic Acid], 10 to 100 nM.
On the same count and under the same terms, under `Cc1c(COc2cc(OCc3cncc(C#N)c3)c(CN[C@](C)(CO)C(=O)O)cc2Cl)cccc1-c1cccc(OCCCN2CC[C@@H](O)C2)c1Cl` [Example 1121, (R)-2-((5-Chloro-4-((2′-chloro-3′-(3-((R)-3-hydroxypyrrolidin-1-yl)propoxy)-2-methyl-[1,1′-biphenyl]-3-yl)methoxy)-2-((5-cyanopyridin-3-yl)methoxy)benzyl)amino)-3-hydroxy-2-methylpropanoic Acid] stands 0.21 to 10 nM.
The same measure, in the same setting: under `Cc1c(COc2cc(OCc3cncc(C#N)c3)c(CN3CCCC[C@H]3C(=O)O)cc2Cl)cccc1-c1cccc(OCCCN2CC[C@@H](O)C2)c1Cl` [Example 1510, (S)-1-(5-chloro-4-((2′-chloro-3′-(3-((R)-3-hydroxypyrrolidin-1-yl)propoxy)-2-methyl-[1,1′-biphenyl]-3-yl)methoxy)-2-((5-cyanopyridin-3-yl)methoxy)benzyl)piperidine-2-carboxylic acid] stands 0.21 to 10 nM.
In the case of `Cc1c(COc2cc(OCc3cncc(C#N)c3)c(CN[C@@](C)(CO)C(=O)O)cc2Cl)cccc1-c1cccc(OCCCN2CC[C@@H](O)C2)c1Cl` [Example 1511, (S)-2-((5-chloro-4-((2′-chloro-3′-(3-((R)-3-hydroxypyrrolidin-1-yl)propoxy)-2-methyl-[1,1′-biphenyl]-3-yl)methoxy)-2-((5-cyanopyridin-3-yl)methoxy)benzyl)amino)-3-hydroxy-2-methylpropanoic acid], the IC50 was in the range of 0.21 to 10 nM.
